The values below come from publication PMC12699035, “Exploring market-approved azoles as potential breast cancer therapeutics targeting the VEGFR-2 biotarget” (Scientific Reports, 2025).

Broadly, the viability is the share of living cells, or the viability signal relative to a control.

Like-named read-outs stand apart in the source and are kept apart here.

One test concerns MCF-10A cells. Kind of test: Cytotoxicity against MCF-10A cells, MTT assay (five doses). It counts as cell-based. The conditions noted are these: Homo sapiens, MCF-10A normal cells, five dose concentrations, n = 3, read-out: MCF-10A IC50 ± SD.
For another test, the system named is MCF-7 cells. The test is described as follows: Cytotoxicity against MCF-7 cells, MTT assay (single dose and five doses).
A further test deals with VEGF. Kind of test: Immunohistochemical staining of VEGF in SEC tumor sections. It counts as in vivo, mice. The note with it: IHC of SEC tumor. The text has this:
VEGF has been considered a biomarker for VEGFR-2 bioactivity, as it binds to and activates this kinase receptor, playing a crucial role in angiogenesis. High VEGF levels are often associated with increased VEGFR-2 expression and activity, making VEGF a marker for VEGFR-2's function and tumor growth. […] The staining intensity is strong (+ 3), with dark brown cytoplasmic staining in most tumor cells. The immunoreactive score (IRS), calculated by multiplying the staining intensity score and the percentage of positive cells, is 9–12, indicating a high level of VEGF expression. This intense VEGF expression correlates with the presence of numerous irregular and dilated blood vessels in the tumor microenvironment.
The paraffin-infiltrated tissue was sliced into thin sections (4-6 μm) using a microtome and floated in a water bath. The sections were then mounted onto charged slides and left to dry overnight. The use of charged slides ensures the sections adhere properly to the slide. To carry out antibody staining, the paraffin wax was removed from the sample, and the tissue was rehydrated. The paraffin was eliminated by placing the tissue sections in three containers of xylene for 5 minutes each. Rehydration began by immersing the sections in two containers of 100% ethanol for 10 minutes each, followed by two containers of 95% ethanol for 10 minutes each. Finally, to complete the rehydration, the sections were washed twice in deionized water for 5 minutes each.
For antigen retrieval, the slides are heated in 10 mM Tris/1 mM EDTA, pH 9.0, kept at a sub-boiling temperature for 18 minutes, and then allowed to cool at room temperature for 30 minutes. For chromogenic staining detection, the sections are rinsed in deionized water three times for 5 minutes each, and then the endogenous peroxidase activity in the tissue sections is quenched to prevent high background staining by incubating the sections in 3% hydrogen peroxide for 10 minutes. Afterward, the sections are washed twice in deionized water for 5 minutes each, followed by a single wash in wash buffer for 5 minutes. A hydrophobic pen is used to carefully draw a large circle around the sample, ensuring it doesn’t touch the sample, creating a hydrophobic boundary to achieve optimal antibody staining quality. To prevent non-specific antibodies from binding to the tissue, each section is blocked with 100–400 µl of blocking solution for 1 hour at room temperature in a humidified chamber. The blocking solution was discarded, and 100–400 µl of diluted primary antibody was applied. […]
The slides were incubated overnight at 4°C in a humidified chamber. […] Then, 100–400 µl of Signal Stain DAB was applied to each section and monitored closely for 1–10 minutes until an acceptable staining intensity was achieved. […]

Another test addresses T1, VEGFR-2 (Homo sapiens, UniProt P35968).
T1 construct: purchased BPS Bioscience 40325
The test is described as follows: VEGFR-2 kinase inhibition, luminescent VEGFR2 (KDR) kinase assay kit (BPS Bioscience # 40325). The test is classed as biochemical. The protocol:
Functionally, this pathway operates in autocrine and intracrine modes to promote cell proliferation, survival, and resistance to apoptosis through downstream effectors such as PI3K/AKT and p38 MAPK.
SIT, FLU and TNZ were tested using the five dose sigmoidal curves to determine the IC50 values. […] At the end of these experiment, anti-tumor potentiality was recorded using tumor weight (mg), tumor volume (mm^3), and the tumor inhibition ratio (TIR%). Hematological parameters of Hemoglobin (Hb, g/dL), RBC’s count (10^6/μL), and WBC’s count (10^3/μL) were investigated, along with histopathological and immunohistochemical staining of the VEGR2 protein.
Compounds Itraconazole. […] [12].

T1 sequence (P35968 20-1356): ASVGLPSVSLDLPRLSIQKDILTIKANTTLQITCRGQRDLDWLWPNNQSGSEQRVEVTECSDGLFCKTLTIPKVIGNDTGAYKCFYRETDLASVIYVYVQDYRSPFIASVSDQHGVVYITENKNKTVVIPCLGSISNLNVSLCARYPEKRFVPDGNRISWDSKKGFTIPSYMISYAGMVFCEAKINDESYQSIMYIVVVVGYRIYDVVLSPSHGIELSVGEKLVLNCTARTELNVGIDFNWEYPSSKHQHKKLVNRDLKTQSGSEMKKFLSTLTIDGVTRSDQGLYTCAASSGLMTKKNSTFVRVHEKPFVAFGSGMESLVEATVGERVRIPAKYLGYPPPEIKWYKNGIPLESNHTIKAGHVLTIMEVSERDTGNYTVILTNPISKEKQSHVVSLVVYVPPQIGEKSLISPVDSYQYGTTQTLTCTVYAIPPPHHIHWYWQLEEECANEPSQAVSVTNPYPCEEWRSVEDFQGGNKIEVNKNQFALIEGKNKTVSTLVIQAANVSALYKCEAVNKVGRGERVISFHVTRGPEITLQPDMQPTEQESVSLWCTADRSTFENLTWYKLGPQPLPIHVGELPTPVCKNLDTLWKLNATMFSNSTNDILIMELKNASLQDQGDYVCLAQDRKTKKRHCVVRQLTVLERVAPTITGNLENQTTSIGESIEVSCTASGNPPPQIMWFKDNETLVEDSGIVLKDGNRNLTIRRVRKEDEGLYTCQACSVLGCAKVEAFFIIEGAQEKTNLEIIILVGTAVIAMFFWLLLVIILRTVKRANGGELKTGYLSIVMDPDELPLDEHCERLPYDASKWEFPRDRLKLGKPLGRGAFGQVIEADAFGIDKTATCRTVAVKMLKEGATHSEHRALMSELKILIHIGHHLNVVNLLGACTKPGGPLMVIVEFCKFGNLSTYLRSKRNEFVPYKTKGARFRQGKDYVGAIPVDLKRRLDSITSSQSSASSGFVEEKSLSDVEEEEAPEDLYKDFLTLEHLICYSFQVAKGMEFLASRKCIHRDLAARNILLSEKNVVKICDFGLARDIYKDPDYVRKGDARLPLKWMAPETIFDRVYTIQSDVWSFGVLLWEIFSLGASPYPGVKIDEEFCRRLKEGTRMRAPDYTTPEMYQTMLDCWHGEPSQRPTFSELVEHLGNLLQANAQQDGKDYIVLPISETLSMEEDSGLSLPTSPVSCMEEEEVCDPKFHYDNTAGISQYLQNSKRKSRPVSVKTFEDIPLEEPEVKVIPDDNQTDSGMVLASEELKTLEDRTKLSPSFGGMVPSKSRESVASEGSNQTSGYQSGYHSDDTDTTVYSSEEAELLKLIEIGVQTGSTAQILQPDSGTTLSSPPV

Regarding `CCC(C)n1ncn(-c2ccc(N3CCN(c4ccc(OCC5COC(Cn6cncn6)(c6ccc(Cl)cc6Cl)O5)cc4)CC3)cc2)c1=O` (centres unmarked) [Itraconazole, itraconazole], the IC50 in the test on MCF-10A cells came to 49.6 ± 2.5 µM; in the test with MCF-7 cells (Homo sapiens, MCF7, read-out: MCF-7 IC50 ± SD, MCF-7, five dose concentrations, MTT, n = 3), 25.7 ± 0.9 µM; on VEGFR-2 (enzyme inhibition, dose-response, non-linear regression, read-out: VEGFR-2 inhibition IC50) it was 32.7 µM. The viability at 100 µg/mL in the test with MCF-7 cells (Homo sapiens, MCF7, read-out: Average viability%) worked out at 69.5%; in the test on MCF-7 cells (Homo sapiens, MCF7, read-out: Viability (%) 1), 70.8%; in the test with MCF-7 cells (Homo sapiens, MCF7, read-out: Viability (%) 2), 70.1%; with MCF-7 cells (Homo sapiens, MCF7, read-out: Viability (%) 3), 67.7%. The “Average OD” value in the test on MCF-7 cells (MCF-7, single dose 100 μg/mL, MTT optical density, average of triplicates) was 2.24. Moreover, the OD1 in the test on MCF-7 cells (MCF-7, single dose 100 μg/mL, MTT optical density, replicate 1) was 2.28. Also, in the test with MCF-7 cells (MCF-7, single dose 100 μg/mL, MTT optical density, replicate 2), the OD2 amounted to 2.26. Besides, the OD3 with MCF-7 cells (MCF-7, single dose 100 μg/mL, MTT optical density, replicate 3) turned out to be 2.18. Moreover, the “immunoreactive score (IRS)” value in the test on VEGF (scale 0-12, SEC control 9–12) is listed as 4–8. For the same compound, the “percentage of VEGF-positive tumor cells” value in the test on VEGF (SEC control 80–90%) is on record as 40–60%. The “VEGFR-2 enzyme inhibition LogIC50 (Fig. 3)” value on VEGFR-2 (dose-response curve fit, unit not given) amounted to 1.515.
